Values quoted from earlier work, collected in patent US20020107236A1, “Methods of treating sexual dysfunction associated with hypertension” (priority 2000, published 2002).

Test system: male rats
Details: used for treatment of hypertensive disorder in male rats

In the case of `CCCCc1nc(Cl)c(CO)n1Cc1ccc(-c2ccccc2-c2nn[nH]n2)cc1` [losartan], the “preservation of sexual function” value is given as “advantage in preservation of sexual function”.
